Results reported in patent US7033580B2, “Hair-growing agent” (priority 1996, dated 2006).
Read-outs that look alike come from different tables or passages of the source.

How the values were obtained:
[1] = tested on: protein kinase C (PKC); test: PKC-inhibiting activity measuring method (Kikkawa et al.); format: biochemical, rat; conditions: ratio, selectivity PKC over PKA
Experimental: (§1) (1) Method for Measuring PKC-inhibiting Activity
(§2) Precisely, 10 μl of a sample to be tested for determining its activity is added to 250 μl of a solution comprising 2.5 μmols of magnesium acetate, 50 μg of histone Type IIIS (produced by Sigma Co.), 20 μg of phosphatidylserine, 0.8 μg of diolein, 25 μmols of calcium chloride, 5 μg of a crude enzyme (as partially purified from a rat brain according to the Kikkawa et al's method) and 5 μmols of Tris-HCl buffer (pH 7.5), and incubated therein at 30° C. for 3 minutes.

[2] = molecular target: T1, protein kinase C (PKC); test: as above; format: biochemical, rat; conditions: crude enzyme partially purified from rat brain
T1 construct: PKC-IC50; other: crude enzyme partially purified from rat brain
Experimental: as §1, §2

[3] = molecular target: protein kinase A (PKA) (Bos taurus, UniProt P00517); test: PKA-inhibiting activity measuring method (Kuo et al.); format: biochemical; conditions: crude enzyme partially purified from calf heart
Experimental: (2) Method for Measuring PKA-inhibiting Activity
To measure the PKA-inhibiting activity of a protein kinase inhibitor, referred to is the Kuo et al's method (see Biochemistry, 64, 1349, 1969).
Precisely, 10 μl of a sample to be tested for determining its activity is added to 250 μl of a solution comprising 5 μmols of Tris-HCl buffer (pH 6.8), 2.5 μmols of magnesium acetate, 100 μg of histone Type IIS (produced by Sigma Co.), 0.25 nmols of c-AMP and 200 μg of a crude enzyme (as partially purified from a calf heart according to the Kuo et al's method), and incubated therein at 30° C. for 3 minutes.
After the completion of the incubation, 1.25 nmols of [g-^32P]ATP (from 5×10^3 to 10×10^3 cpm/nmol) is added to the system, and phosphorylation reaction is carried out at 30° C. for 3 minutes, and thereafter the reaction is terminated by adding 25% trichloroacetic acid thereto.
The resulting reaction mixture is filtrated through a cellulose acetate membrane (pore size: 0.45 μm) (produced by Toyo Filter Co.), and the membrane is washed four times with 5% trichloroacetic acid, and thereafter the radioactivity of the residue remained on the membrane is measured to be a value of the sample.
On the other hand, the same process as described above is repeated without adding the sample to the system, and the radioactivity is obtained to be a control value.

[4] = tested on: Mouse hair-follicle cells; test: Hair growth promoting effect in mouse hair-follicle cell culture (Neutral Red); format: cell-based; conditions: for Relative Degree of Cell Growth, vehicled on the degree of cell growth of 100 in Control: 5 days
Experimental: Mouse hair-follicle cells were cultivated and collected, according to the modified method of the Tanigai et al's method (see Archives of Dermatological Research, 284, 290–296, 1992) while suitably modifying the method.
That is, the skin was peeled from the back of a 4-day age C3H mouse (bought from Nippon Charles River Co.), and processed with an MEM (Minimum Essential Medium, Eagle) containing 500 units/ml Disperse (produced by Godo Shusei Co.) and 5% FCS, at 4° C. for 16 hours.
The epidermis was removed from said skin sample, and the resulting dermis layer was processed with a DMEM (Dulbecco's Modified Eagle Medium) containing 0.25% collagenase N-2 (produced by Nitta Gelatin Co.) and 10% FCS, at 37° C. for 1 hours, to prepare a dermis suspension.
This dermis suspension was filtrated through a 212-micron nylon mesh (produced by Nippon Rikagaku Kikai KK), and the resulting filtrate was centrifuged at 1,000 rpm for 5 minutes to obtain hair-follicle tissue-containing pellets.
The resulting pellets were suspended in a Ca-Mg-free PBS (Dulbecco's Phosphate-Buffered Saline), using a pipette, and then statically left as it was for 15 minutes, whereby the hair-follicle tissue was precipitated.
The thus-obtained hair-follicle tissue was repeatedly processed for a total of three times according to the same process as above comprising the addition of a Ca-Mg-free PBS, the suspension with a pipette, and the precipitation for 15 minutes.
The hair-follicle tissue thus obtained finally was processed with 0.1% EDTA-0.25% trypsin (produced by Gibco Co.) at 37° C. for 5 minutes, to which was then added a DMEM containing 10% FCS. Thus was prepared herein a hair-follicle tissue cell suspension comprising 3×10^5 cells/ml.
This hair-follicle tissue cell suspension was pipetted into a 24-well collagen-coated plate (produced by Iwaki Glass Co.) in an amount of 1 ml/well, and cultivated at 37° C. in 5% CO2 for 24 hours.
The resulting culture was then subjected to medium exchange with an MCDB153 medium (produced by Kyokuto Pharmaceutical Co.) containing 5 mg/liter insulin from bovine (produced by Sigma Co.), 5 μg/liter mouse EGF (produced by Takara Shuzo Co.), 40 mg/liter bovine pituitary extract (produced by Kyokuto Pharmaceutical Co.), 10 mg/liter human transferrin (produced by Sigma Co.), 0.4 mg/liter hydrocortisone (produced by Sigma Co.), 0.63 μg/liter progesterone (produced by Collaborative Research Co.), 14 mg/liter O-phosphoethanolamine (produced by Sigma Co.), 6.1 mg/liter ethanolamine (produced by Sigma Co.), 50 U/ml penicillin (produced by Wako Co.), 50 μg/ml streptomycin (produced by Wako Co.), and an DMSO solution comprising a PKC inhibitor of the invention (this was added in an amount of 1/100 by volume relative to the medium), and then further cultivated at 37° C. in 5% CO2 for 5 days. During the incubation, the medium was exchanged with a fresh one every other day.
As the control, the cell culture was cultivated in the same manner as above, except that only DMSO of 1/100 by volume relative to the medium was added to the medium in place of the PKC inhibitor-containing DMSO solution.
To determine the degree of cell growth, referred to herein was a known method of using Neutral Red (see Journal of Tissue Culture Method, 9, 1, 7–9, 1984). […]
The absorbance of the extract at 540 nm was measured, from which was obtained the degree of growth of the cells.

[5] = molecular target: protein kinase A (PKA); conditions: Excerpt from BIO/TECHNOLOGY, 8, 732, 1990; cited from earlier work
[6] = molecular target: protein kinase C (PKC); conditions: Excerpt from BIO/TECHNOLOGY, 8, 732, 1990, cited from earlier work
[7] = tested on: hair-follicle organ culture; conditions: British Journal of Dermatology, 133, 5, 686–693, 1995; cited from earlier work

Molecule: CCCCCCCCCCCCCCCC(=O)OC(CC(=O)O)C[N+](C)(C)C.[Cl-] (racemic) [Palmitoyl-DL-carnitine Hydrochloride, palmitoyl-DL-carnitine hydrochloride]
- PKA-IC50/PKC-IC50 [1]: >3
- IC50 [2]: 100 µM
- IC50 [3]: > 300 µM
- Relative Degree of Cell Growth, vehicled on the degree of cell growth of 100 in Control ([4]; Concentration 10 μM): 170

Molecule: COC(=O)[C@@]1(O)C[C@H]2O[C@]1(C)n1c3ccccc3c3c4c(c5c6ccccc6n2c5c31)C(=O)NC4 [Composition K252a]
- effect on growth of mouse hair-follicle cells (in words) [4]: inhibited the growth of mouse hair-follicle cells
- IC50 [5]: 0.02 µM

Molecule: polymyxin B sulfate
- PKA-IC50/PKC-IC50 [1]: >10
- IC50 [2]: 10 µM
- IC50 [3]: > 100 µM
- Relative Degree of Cell Growth, vehicled on the degree of cell growth of 100 in Control ([4]; Concentration 10 μM): 360

Molecule: CN[C@@H]1C[C@H]2O[C@@](C)([C@@H]1OC)n1c3ccccc3c3c4c(c5c6ccccc6n2c5c31)C(=O)NC4 [Staurosporine]
- effect on growth of mouse hair-follicle cells (in words) [4]: inhibited the growth of mouse hair-follicle cells

Molecule: calphostin C
- PKA-IC50/PKC-IC50 [1]: >1000
- IC50 [2]: 0.05 µM
- IC50 [3]: > 50 µM
- Relative Degree of Cell Growth, vehicled on the degree of cell growth of 100 in Control ([4]; Concentration 0.1 μM): 160

Molecule: CC1CNCCN1S(=O)(=O)c1cccc2cnccc12 (stereo not shown) [Composition H-7, 1-(5-Isoquinolinylsulfonyl)-2-methylpiperazine]
- IC50 [6]: 15 µM
- PKA-IC50/PKC-IC50 ([6]; ratio): 0.87
- IC50 [5]: 13 µM
- effect on hair growth retardation by 12-O-tetragalloyl-phorbol-13-acetate (in words) [7]: release the hair growth-retarding activity
